The values below are quoted from earlier work in patent US9801827B2, “Dosage forms for administering combinations of drugs” (Pozen Inc., priority 2006, dated 2017).

The conditions of the data set: pharmacokinetic half-life, given as examples of long acting NSAIDs.

In the case of `CCc1cccc2c3c([nH]c12)C(CC)(CC(=O)O)OCC3` (stereo not drawn) [etodolac], the half-life result is listed as “about 7 hours”. For the compound `CC(C(=O)O)c1ccc(-c2ccccc2)c(F)c1` (stereo not drawn) [flurbiprofen], the half-life entry is “about 6 hours”.

As for `O=C(c1ccccc1)c1ccc2n1CCC2C(=O)O` (stereo not drawn) [ketorolac], the half-life is 8 to 9 h. In the case of `Cc1cccc(Nc2ccccc2C(=O)O)c1C` [mefenamic acid], the half-life result is “up to 4 hours”.

Regarding `COc1ccc2cc(CCC(C)=O)ccc2c1` [nabumetone], the half-life was 22 to 30 h.

`O=C(O)CCc1nc(-c2ccccc2)c(-c2ccccc2)o1` [oxaprozin]: the half-life is 42 to 50 h.
